Reference: US12077555B2, “STAT degraders and uses thereof” (Kymera Therapeutics, Inc., priority 2019, dated 2024)

Molecular target: T1, STAT3 (Homo sapiens, UniProt P40763)
Assay: Quantitation of STAT3 degradation in A549 cells by Western blot
Assay type: cell-based
Set-up: expressed in transfected cells; host or cells: A549
Settings: read-out: A549 DC50, 24 hours, tested up to 30 μM or 10 μM
Experimental: Degradation of total cellular STAT3 protein in A549 was quantitatively measured using SDS-PAGE and Western blot analysis. A549 cells (5×10^5 cells/well, 2 mL) were seeded into 6-well plates and were incubated in the incubator under 5% CO2 overnight to reach ˜80% confluency. The next day, the culture medium was changed with 1 ml fresh media. Then, 1 mL of media containing 2× compound solution was added into the well to make the final concentration of 30 μM, 10 μM, 3 μM, 1 μM, 0.3 μM and 0 μM (DMSO). The media was thoroughly mixed and incubated for 24 hours at 37° C. under 5% CO2. Then, the culture media was removed from the assay plates and the cells were washed with ice-cold PBS twice. To prepare cell lysates, 200 ul pre-chilled RIPA lysis buffer (Boston BioProducts BP-115D) with protease/phosphatase inhibitor (Roche 05892791001/Roche 04906837001) was added directly into the well to lyse the cells for 20 minutes on ice. The cell lysates were then transferred to centrifuge tubes. Insoluble part of lysates was removed by centrifuging the lysates at 13000 rpm for 20 minutes. The supernatant was then collected and mixed with 5× loading buffer (Beyotime Bio P0015) to make the final samples for SDS-PAGE analysis. The samples were heated at 100° C. for 10 minutes and cool to room temperature before centrifuging at 13000 rpm for 20 minutes. To analyze the samples by SDS-PAGE, 10 ul samples were loaded onto SDS-PAGE gel (Novex, WG1403BOX) and the SDS-PAGE gel was run for 20 minutes at 80 V, then at 120 V for 1.5 hours. The SDS-PAGE gel was then transferred to nitrocellulose membrane using the wet-transfer method at 250 mA for 1.5 hours. The membrane was then blocked with LI-COR blocking buffer (LI-COR, 927-50000) for 1 hour and was probed with primary antibody (mouse anti-STAT3 (124H6) (CST #91395) 1:2000 or mouse anti-beta-Actin (8H10D10) (CST #3700) 1:10000) at 4° C. overnight. The membrane was then washed three times with TBST buffer and probed with secondary antibody (anti-mouse IgG (LI-COR, 926-68070), 1:5000) for 1 hour at room temperature. The membrane was then scanned on a LI-COR Odyssey instrument and was quantified using Image Studio Version 5.2. Concentration at 50% degradation (DC50) was calculated by fitting dose dependent degradation data using a sigmoidal equation using GraphPad Prism Version 8.0.

T1 sequence (P40763 whole entry): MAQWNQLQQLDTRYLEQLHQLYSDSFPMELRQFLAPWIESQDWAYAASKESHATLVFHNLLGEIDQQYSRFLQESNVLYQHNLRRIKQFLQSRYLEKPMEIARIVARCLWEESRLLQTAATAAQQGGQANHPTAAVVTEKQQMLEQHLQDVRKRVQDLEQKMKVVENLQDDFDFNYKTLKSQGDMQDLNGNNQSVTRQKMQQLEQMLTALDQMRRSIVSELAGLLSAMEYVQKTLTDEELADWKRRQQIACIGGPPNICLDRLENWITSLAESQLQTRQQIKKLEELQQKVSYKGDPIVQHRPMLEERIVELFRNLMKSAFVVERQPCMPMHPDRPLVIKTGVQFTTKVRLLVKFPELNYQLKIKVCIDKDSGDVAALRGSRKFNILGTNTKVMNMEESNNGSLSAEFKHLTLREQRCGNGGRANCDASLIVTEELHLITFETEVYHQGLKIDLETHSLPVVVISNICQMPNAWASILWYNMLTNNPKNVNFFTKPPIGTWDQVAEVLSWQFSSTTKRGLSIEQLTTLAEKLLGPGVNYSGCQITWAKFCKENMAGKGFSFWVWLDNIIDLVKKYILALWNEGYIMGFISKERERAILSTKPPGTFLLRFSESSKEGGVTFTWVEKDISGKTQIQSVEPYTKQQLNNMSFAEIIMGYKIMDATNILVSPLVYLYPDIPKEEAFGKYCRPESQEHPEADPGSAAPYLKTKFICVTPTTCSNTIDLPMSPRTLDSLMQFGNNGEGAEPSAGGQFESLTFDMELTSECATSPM

SMILES	DC50 [µM]
C/C(=C\C(=O)N[C@H]1CCc2cccc3c2N(C1=O)[C@H](C(=O)N[C@@H](CCC(N)=O)[C@@H](C)OCc1ccc(CCCCc2cccc4c2n(C)c(=O)n4C2CCC(=O)NC2=O)cc1)C3)c1ccc(C(F)(F)P(=O)(OCOC(=O)C(C)(C)C)OCOC(=O)C(C)(C)C)cc1 (stereo partly shown) [Compound I-3]	> 30
C/C(=C\C(=O)N[C@H]1CCc2cccc3c2N(C1=O)[C@H](C(=O)NC(CCC(N)=O)[C@@H](C)OCc1ccc(CCCOCC(=O)N[C@H](C(=O)N2C[C@H](O)CC2C(=O)NCc2ccc(-c4scnc4C)cc2)C(C)(C)C)cc1)C3)c1ccc(C(F)(F)P(=O)(OCOC(=O)C(C)(C)C)OCOC(=O)C(C)(C)C)cc1 (stereo partly shown) [Compound I-35]	< 30
Cn1c(=O)n(C2CCC(=O)NC2=O)c2cccc(CCCCC(=O)N3CC[C@H]4CC[C@@H](C(=O)N[C@@H](CCC(N)=O)C(=O)NC(c5ccccc5)c5ccccc5)N4C(=O)[C@@H](NC(=O)c4cc5cc(C(=O)P(=O)(O)O)ccc5[nH]4)C3)c21 (stereo partly drawn) [Compound I-88, 2-[[(5S,8S,10aR)-8-[[(1S)-3-carbamoyl-1-(diphenylmethylcarbamoyl)propyl]carbamoyl]-3-[5-[1-(2,6-dioxopiperidin-3-yl)-3-methyl-2-oxo-1,3-benzodiazol-4-yl]pentanoyl]-6-oxo-octahydropyrrolo[1,2-a][1,5]diazocin-5-yl]carbamoyl]-1H-indole-5-carbonylphosphonic acid]	> 30
C/C(=C\C(=O)N[C@H]1CCc2cccc3c2N(C1=O)[C@H](C(=O)N[C@@H](CCC(N)=O)[C@@H](C)OCc1ccc(C(=O)N[C@H](C(=O)N2C[C@H](O)CC2C(=O)NCc2ccc(-c4scnc4C)cc2)C(C)(C)C)cc1)C3)c1ccc(C(F)(F)P(=O)(OCOC(=O)C(C)(C)C)OCOC(=O)C(C)(C)C)cc1 (stereo partly shown) [Compound I-11]	> 30
Cc1ncsc1-c1ccc(CNC(=O)[C@@H]2C[C@@H](O)CN2C(=O)[C@@H](NC(=O)CCCCc2cccc(CO[C@H](C)[C@H](CCC(N)=O)NC(=O)[C@@H]3Cc4cccc5c4N3C(=O)[C@@H](NC(=O)c3cc4cc(C(=O)P(=O)(O)O)ccc4[nH]3)CC5)c2)C(C)(C)C)cc1 [Compound I-95, diammonium 2-[[(2S,11S)-2-[[(3S,4R)-1-carbamoyl-4-[[3-(4-[[(2S)-1-[(2S,4R)-4-hydroxy-2-([[4-(4-methyl-1,3-thiazol-5-yl)phenyl]methyl]carbamoyl)pyrrolidin-1-yl]-3,3-dimethyl-1-oxobutan-2-yl]carbamoyl]butyl)phenyl]methoxy]pentan-3-yl]carbamoyl]-12-oxo-1-azatricyclo[6.4.1.0^[4,13]]trideca-4(13),5,7-trien-11-yl]carbamoyl]-1H-indole-5-carbonylphosphonate]	< 30
C/C(=C\C(=O)N[C@H]1CCc2cccc3c2N(C1=O)[C@H](C(=O)N[C@@H](CCC(N)=O)[C@@H](C)OCc1ccc(CCCOCCOCCCc2ccc4c(c2)n(C)c(=O)n4C2CCC(=O)NC2=O)cc1)C3)c1ccc(C(F)(F)P(=O)(OCOC(=O)C(C)(C)C)OCOC(=O)C(C)(C)C)cc1 (stereo partly shown) [Compound I-54]	> 30

Molecular target: T1, STAT3
Assay: STAT3 HiBiT degradation assay in transfected A549 cells
Assay type: cell-based
Set-up: expressed in transfected cells; host or cells: A549
Settings: A549, 24 h; read-out: STAT3 HiBiT A549 degradation 24 h: Average external-Abs DC50
Outline: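 Degradation read as HiBiT-tagged STAT3 luminescence (Nano-Glo lytic reagent, 10 min, room temperature) following 24 h compound treatment of transfected A549 cells at 3-fold, 10 points. Percent remaining signal computed against controls and fitted with a four-parameter logistic; DC50 reported as letter bins (A <0.01 to D >1.0 µM).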

SMILES	DC50 [µM]
Cc1ncsc1-c1ccc([C@H](C)NC(=O)[C@@H]2C[C@@H](O)CN2C(=O)[C@@H](NC(=O)CCCCCc2cccc(OC[C@@H](NC(=O)[C@@H]3Cc4cccc5c4N3C(=O)[C@@H](NC(=O)c3cc4cc(C(=O)P(=O)(O)O)ccc4[nH]3)CC5)C(N)=O)c2C)C(C)(C)C)cc1 [Compound I-205, diammonium 2-[[(2S,11S)-2-[[(2S)-4-carbamoyl-1-[3-[5-[[(2S)-1-[(2S,4R)-4-hydroxy-2-[[(1S)-1-[4-[4-methyl-1,3-thiazol-5-yl)phenyl]ethyl]carbamoyl]pyrrolidin-1-yl]-3,3-dimethyl-1-oxobutan-2-yl]carbamoyl]pentyl)-2-methylphenoxy]butan-2-yl]carbamoyl]-12-oxo-1-azatricyclo[6.4.1.0^[4,13]]trideca-4(13),5,7-trien-11-yl]carbamoyl]-1H-indole-5-carbonylphosphonate]	0.01 to 0.1
Cc1ncsc1-c1ccc(CNC(=O)[C@@H]2C[C@@H](O)CN2C(=O)[C@@H](NC(=O)CCCCCCCCOC[C@H](CCC(N)=O)NC(=O)[C@@H]2Cc3cccc4c3N2C(=O)[C@@H](NC(=O)c2cc3cc(C(=O)P(=O)(O)O)ccc3[nH]2)CC4)C(C)(C)C)cc1 [Compound I-154]	> 1
Cc1ncsc1-c1ccc([C@H](C)NC(=O)[C@@H]2C[C@@H](O)CN2C(=O)[C@@H](NC(=O)CCCCCc2cccc(OC[C@H](CCC(N)=O)NC(=O)[C@@H]3Cc4cccc5c4N3C(=O)[C@@H](NC(=O)c3cc4cc(C(=O)P(=O)(O)O)ccc4[nH]3)CC5)c2F)C(C)(C)C)cc1 [Compound I-217, 2-[[(2S,11S)-2-[[(2S)-4-carbamoyl-1-[2-fluoro-3-(5-[[(2S)-1-[(2S,4R)-4-hydroxy-2-[[(1S)-1-[4-(4-methyl-1,3-thiazol-5-yl)phenyl]ethyl]carbamoyl]pyrrolidin-1-yl]-3,3-dimethyl-1-oxobutan-2-yl]carbamoyl]pentyl)phenoxy]butan-2-yl]carbamoyl]-12-oxo-1-azatricyclo[6.4.1.0^[4,13]]trideca-4(13),5,7-trien-11-yl]carbamoyl]-1H-indole-5-carbonylphosphonic acid]	< 0.01
Cc1ncsc1-c1ccc(CNC(=O)[C@@H]2C[C@@H](O)CN2C(=O)[C@@H](NC(=O)C2CCN(c3ccc(CO[C@H](C)[C@H](CCC(N)=O)NC(=O)[C@@H]4Cc5cccc6c5N4C(=O)[C@@H](NC(=O)c4cc5cc(C(=O)P(=O)(O)O)ccc5[nH]4)CC6)cc3)CC2)C(C)(C)C)cc1 [Compound I-161]	> 1
Cc1ncsc1-c1ccc([C@H](C)NC(=O)[C@@H]2C[C@@H](O)CN2C(=O)[C@@H](NC(=O)CCCc2cccc(OC[C@@H](NC(=O)[C@@H]3Cc4cccc5c4N3C(=O)[C@@H](NC(=O)c3cc4cc(C(=O)P(=O)(O)O)ccc4[nH]3)CC5)C(N)=O)c2)C(C)(C)C)cc1 [Compound I-194, diammonium 2-[[(2S,11S)-2-[[(2S)-4-carbamoyl-1-[3-(3-[[(2S)-1-[(2S,4R)-4-hydroxy-2-[[(1S)-1-[4-(4-methyl-1,3-thiazol-5-yl)phenyl]ethyl]carbamoyl]pyrrolidin-1-yl]-3,3-dimethyl-1-oxobutan-2-yl]carbamoyl]propyl)phenoxy]butan-2-yl]carbamoyl]-12-oxo-1-azatricyclo[6.4.1.0^[4,13]]trideca-4(13),5,7-trien-11-yl]carbamoyl]-1H-indole-5-carbonylphosphonate]	0.01 to 0.1
Cc1ncsc1-c1ccc([C@H](C)NC(=O)[C@@H]2C[C@@H](O)CN2C(=O)[C@@H](NC(=O)CCCCCc2cccc(NC(=O)[C@H](CCC(N)=O)NC(=O)[C@@H]3Cc4cccc5c4N3C(=O)[C@@H](NC(=O)c3cc4cc(C(=O)P(=O)(O)O)ccc4[nH]3)CC5)c2Cl)C(C)(C)C)cc1 [Compound I-249, 2-[[(2S,11S)-2-[[(1S)-3-carbamoyl-1-[[2-chloro-3-(5-[[(2S)-1-[(2S,4R)-4-hydroxy-2-[[(1S)-1-[4-(4-methyl-1,3-thiazol-5-yl)phenyl]ethyl]carbamoyl]pyrrolidin-1-yl]-3,3-dimethyl-1-oxobutan-2-yl]carbamoyl]pentyl)phenyl]carbamoyl]propyl]carbamoyl]-12-oxo-1-azatricyclo[6.4.1.0^[4,13]]trideca-4(13),5,7-trien-11-yl]carbamoyl]-1H-indole-5-carbonylphosphonic acid]	0.01 to 0.1
Cc1ncsc1-c1ccc([C@H](C)NC(=O)[C@@H]2C[C@@H](O)CN2C(=O)[C@@H](NC(=O)CCCCCc2ccnc([C@H](CCC(N)=O)NC(=O)[C@@H]3Cc4cccc5c4N3C(=O)[C@@H](NC(=O)c3cc4cc(C(=O)P(=O)(O)O)ccc4[nH]3)CC5)c2)C(C)(C)C)cc1 [Compound I-268, 2-[[(2S,11S)-2-[[(1S)-3-carbamoyl-1-[4-(5-[[(2S)-1-[(2S,4R)-4-hydroxy-2-[[(1S)-1-[4-(4-methyl-1,3-thiazol-5-yl)phenyl]ethyl]carbamoyl]pyrrolidin-1-yl]-3,3-dimethyl-1-oxobutan-2-yl]carbamoyl]pentyl)pyridin-2-yl]propyl]carbamoyl]-12-oxo-1-azatricyclo [6.4.1.0^[4,13]]trideca-4(13),5,7-trien-11-yl]carbamoyl]-1H-indole-5-carbonylphosphonic acid]	0.1 to 1
